Tests used:
MC38 allograft = test: In vivo Compound 1 combination treatment, allograft; parameters: species or system B6 mice; settings: Cmpd1 + αPD-L1; not significant vs single-agent PD-L1
CT26 allograft = test: as above; parameters: species or system Balb/c mice; settings: Compound 1 40 mg/kg oral daily + anti-PD-L1 10 mg/kg every 5 days
Experimental: (§1) Combination studies were performed by vivoPharm (Hummelstown, PA, USA). All procedures used in the performance of these studies were carried out in accordance with vivoPharm's Standard Operating Procedures, with particular reference to US_SOPvP_EF0314 “General Procedures for Efficacy Studies.” CT26 colon carcinoma cells (1×10^6 cells/mouse in 100 μL, passage 2-3) were re-suspended in serum-free DMEM and implanted in the upper right flank of 11-12 week old female Balb/c mice (Charles River Laboratories). Mice were randomized into four groups of 10 using a matched pair distribution method based on tumor size for CT26. Treatment was initiated 12 days post-inoculation with mean tumor volume at start of dosing of 125.85 mm^3. Vehicle or Compound 1 (40 mg/kg) was administered by oral gavage daily for 26 days and isotype control or a reverse chimera anti-PD-L1 cloned from literature reports (e.g., Deng, R. et al. MAbs (2016), the content of which is incorporated herein by reference in entirety) and placed into a mouse IgG1 framework (10 mg/kg) was administered every 5 days for a total of six doses. Investigators were not blinded to treatment groups. […] Mice were scarified on Day 13 and lung metastases were quantified (small≤1 mm, medium>1 mm and ≤3 mm, large>3 mm). No large lung metastases were detected.

B16F10 MDOTS = test: Bead-based cytokine profiling of MDOTS conditioned media; assay type: cell-based, murine; settings: Cmpd1 1 μM ± αPD-1
Experimental: (§2) Fresh tumor specimens (murine and human patients) were received in media (DMEM) on ice and minced in a 10 cm dish (on ice) using sterile forceps and scalpel. Minced tumor was resuspended in DMEM (4.5 mM glucose, […] sodium pyruvate, 1:100 penicillin-streptomycin) (Coming CellGro, Manassas, VA)+10% FBS (Gemini Bio-Products, West Sacramento, CA), 100 U/mL collagenase type IV (Life Technologies, Carlsbad, CA), and 15 mM HEPES (Life Technologies, Carlsbad, CA), except for CT26 tumors that were prepared in RPMI. Samples were pelleted and resuspended in 10-20 mL media. Red blood cells were removed from visibly bloody samples using RBC Lysis Buffer (Boston Bio-Products, Ashland, MA). […]
(§3) Two multiplex assays were performed utilizing a bead-based immunoassay approach, the Bio-Plex Pro™ Human Cytokine 40-plex Assay (Cat #171AK99MR2) and Bio-Plex Pro™ Mouse Cytokine Panel 1, 23-plex (Cat #M60009RDPD) on a Bio-plex 200 system (Cat #171000201). […] Fold changes relative to the MDOT/PDOT control were calculated and plotted as log 2FC. Lower and upper limits of quantitation (LLOQ/ULOQ) were imputed from standard curves for cytokines above or below detection. […]

CT26 MDOTS = test: as above; assay type: cell-based, murine; settings: Cmpd1 1 μM ± anti-PD-1 10 μg/mL
Experimental: as §2, §3

CT26 and EMT6 cells = test: Re-implantation of CT26 and EMT6 cells after combination therapy (immunologic memory); assay type: in vivo, mice; settings: previously treated with anti-PD-L1 + Compound 1
Experimental: as §1

MB49 allograft = test: In vivo Compound 1 combination treatment, allograft; parameters: species or system B6 mice; settings: Cmpd1 + αPD-L1

## N#Cc1cc(-c2ncnc(Nc3ccc(N4CCN(C5COC5)CC4)cc3)n2)ccc1OC1CCOCC1 [Compound 1, 5-(4-((4-(4-(oxetan-3-yl)piperazin-1-yl)phenyl)amino)-1,3,5-triazin-2-yl)-2-((tetrahydro-2H-pyran-4-yl)oxy)benzonitrile]
MC38 allograft
  in vivo survival, MC38 model, combination treatment: enhanced
CT26 allograft
  survival, CT26 allograft, combination vs Cmpd1 or anti-PD-L1 alone: longer survival
  tumour control, CT26 allograft, combination vs Cmpd1 or anti-PD-L1 alone: greater tumour control
B16F10 MDOTS
  G-CSF and related innate immune response cytokines in B16F10 MDOTS: without concomitant induction
CT26 MDOTS
  levels of CCL4, CCL3, and IL-10 in CT26 MDOTS: Decreased levels
CT26 and EMT6 cells
  growth of reimplanted CT26 in mice with exceptional responses to combination therapy: no growth
MB49 allograft
  response to combination treatment in vivo, MB49 bladder carcinoma: enhanced response

Source: patent US12116636B2, “Methods for evaluating tumor cell spheroids using 3D microfluidic cell culture device” (Dana-Farber Cancer Institute, Inc., priority 2017, dated 2024)
